In patent US10669287B2, “Curcumin-boron complex and pharmaceutical containing same” (JAPAN SCIENCE AND TECHNOLOGY AGENCY, priority 2016, dated 2020):
Entries after “also recorded” stand apart in the source; their conditions may differ. Where two headings read alike, the source gives them in different places.

Legend:
[1] = Oxygenation of benzoylmethionine in glycerol/water (LC/MS), Test Example 4; conditions: compound 2 μM, benzoylmethionine 2000 μM, glycerol/water 0:100 to 50:50, LED 730 nm, room temperature
Method: The compound K (2 μM) was added to glycerol/water (0:100, 10:90, 30:70, 50:50) dissolving benzoylmethionine (2000 μM) therein, and the resultant was subjected to LED irradiation (wavelength: 730 nm) at room temperature, and thereafter the reaction was tracked by using LC/MS (ESI-Q).

[2] = target: T1, Aβ1-42 (Homo sapiens, UniProt P05067); assay: In vitro oxygenation experiment using Aβ1-42 as a substrate (MALDI-TOF MS), Test Example 1; assay type: biochemical; conditions: test compound 1 μM, Aβ1-42 10 μM, LED irradiation at 730 nm, 37° C.
T1 construct: phosphate buffer (pH 7.4)/cell culture solution (containing 0.1% horse serum) (1:3) containing Aβ1-42 (10 μM)
Method: An in vitro oxygenation experiment using Aβ1-42 as a substrate was conducted to confirm that each of the inventive compounds actually have Aβ oxygenation activity. A test compound (1 μM in each case) was added to phosphate buffer (pH 7.4)/cell culture solution (containing 0.1% horse serum) (1:3) containing Aβ1-42 (10 μM), and incubated under LED irradiation (wavelength: 660 nm, 730 nm) at 37° C., and then the reaction was tracked by using a mass spectrometer (MALDI-TOF MS). The native Aβ1-42 and the Na^+ adduct were mainly observed before light irradiation. After light irradiation, an ion peak indicating the presence of the oxygenated form was observed over time (FIG. 1, FIG. 2).

[3] = Maximum wavelength λmax of photocatalysts; assay type: physicochemical; conditions: Table 1
[4] = system: PC 12 cells; assay type: cell-based; conditions: 5 minutes then 48 hours, n=5, mean±SEM, Table 1
Method: Rat pheochromocytoma PC 12 cells were suspended with DMEM containing 5% horse serum and 10% fetal bovine serum, seeded in a poly-D-lysine-coated 96-well plate at a concentration of 10,000 cells per well, and incubated in a 5% carbon dioxide atmosphere at 37° C. for 3 days. After the solvent was removed, the cells were washed with 150 μL of serum-free DMEM, and DMEM (75 μL) containing 0.1% horse serum was added thereto. Thereafter, the 96-well plate was incubated in a 5% carbon dioxide atmosphere at 37° C. for 1 day for use in oxygenation reaction. In oxygenation reaction, the compound E (100 μM dimethyl sulfoxide solution) was added to a phosphate buffer saline containing Aβ (aggregated in advance for 3 hours, 40 μM) and 25 μL of the above cell solution (final concentration of Aβ: 10 μM, final concentration of compound E: 1 μM). The mixture was irradiated with an LED (wavelength: 780 nm) at a distance of approximately 5 cm at 37° C. for 5 minutes. The cells were incubated in a 5% carbon dioxide atmosphere at 37° C. for 48 hours. The cell viability was measured by using the Cell Count Reagent SF (NACALAI TESQUE, INC., Kyoto, Japan) with WST-8 (2-(2-methoxy-4-nitrophenyl)-3-(4-nitrophenyl)-5-(2,4-disulfophenyl)-2H-tetrazolium).
b: LC50 (dark) indicates the toxicity of a compound itself, and LC50 (light) indicates the phototoxicity of a compound. The PC 12 cells were placed in dark or subjected to photocatalytic treatment under light irradiation (wavelength: 660 nm), and incubated at 37° C. for 5 minutes, and then in a 5% carbon dioxide atmosphere at 37° C. for 48 hours, for which the cell viability was analyzed (n=5, mean±SEM).
b: The PC 12 cells were treated together with a photocatalyst (1 μM) at 37° C. for 5 minutes in dark or under light irradiation (wavelength: 780 nm), and thereafter the cell viability was analyzed (n=3, mean±SEM).

[5] = target: T1, Aβ1-42; assay: Degree of oxygenation of pre-aggregated Aβ1-42 (MALDI-TOF MS), Test Example 10; assay type: biochemical; conditions: pre-aggregated Aβ1-42 20 μM, catalyst 2 μM, phosphate buffer pH 7.4, 660 nm, 37° C., 30 minutes
Method: (§1) Aβ1-42 isopeptide (concentration: 250 μM in 0.1% aqueous solution of trifluoroacetic acid), angiotensin IV (200 μM aqueous solution), Met-enkephalin (200 μM aqueous solution), and somatostatin (200 μM aqueous solution) were added to a phosphate buffer or phosphate buffer saline (pH 7.4) (with 0.1 M aqueous solution of sodium hydroxide, as necessary) so that a final peptide concentration of 20 μM or 40 μM (pH 7.4) was reached. Before being subjected to oxygenation reaction, the Aβ1-42 solution was incubated at 37° C. for 1 to 3 hours. The phosphate buffer containing 40 μM of Aβ was diluted with a Dulbecco's modified Eagle's medium (DMEM, Life Technologies) containing 0.1% horse serum and buffered with 25 mM of 4-(2-hydroxyethyl)-1-piperazineethanesulfonic acid (HEPES).
(§2) Solutions of the compounds with a final concentration of 2 μM were used for evaluation of oxygenation of Aβ1-42. Solutions of the compounds with a final concentration of 5 μM were used for evaluation of peptide selectivity. Each mixture was subjected to light irradiation with an LED (wavelength: 500, 660, or 780 nm) at a distance of approximately 5 to 10 cm at room temperature. A control group without light irradiation was additionally prepared. Reaction was analyzed through monitor analysis with a MALDI-TOF MS. Degree of oxygenation was determined as a ratio: degree of oxygenation (%)=(total of MS intensities for n[O] adducts)/(MS intensity for native+total of MS intensities for n[O] adducts)×100. Aliquots of each reaction solution were desalted with a ZipTip U-C18 (Merck Millipore), as necessary, before mass spectrometry.
a: A phosphate buffer (pH 7.4) solution containing pre-aggregated Aβ1-42 (20 μM, incubated at 37° C. for 3 hours) and a catalyst (2 μM) was subjected to light irradiation (wavelength: 660 nm) at 37° C. for 30 minutes. Thereafter, the reaction mixture was analyzed by using a MALDI-TOF MS.
a: A phosphate buffer (pH 7.4) containing pre-aggregated Aβ1-42 (20 μM, obtained through incubation at 37° C. for 3 hours) and a catalyst (2 μM) were subjected to light irradiation at 780 nm (14 mW) at 37° C. for 30 minutes. The reaction mixture was analyzed by using a MALDI-TOF MS.

[6] = Stability of catalyst in neutral phosphate buffer without or under light irradiation (HPLC), Test Example 5; assay type: physicochemical; conditions: under light irradiation (660 nm)
Method: A neutral phosphate buffer containing a catalyst was incubated without light irradiation or under light irradiation (660 nm), and thereafter ethanol containing benzyl alcohol (as an internal standard) was added thereto, and analysis was performed by using HPLC.

[7] = system: PC 12 cells; assay: Cytotoxicity under light irradiation, WST-8 cell viability, Test Example 2; assay type: cell-based, rat; conditions: LED 660 nm, 10 mW, 5 minutes, then 48 hours
Method: A culture medium for rat adrenal medulla-derived pheochromocytoma PC 12 cells (purchased from RIKEN, Japan) seeded on a poly-D-lysine-coated 96-well plate was replaced with 75 μL of a Dulbecco's modified Eagle's medium containing 0.1% horse serum, and the culture was incubated in a 5% CO2 atmosphere at 37° C. for 1 day, and 25 μL of a phosphate buffer saline (pH 7.4) containing a inventive compound was then added thereto. Thereafter, the mixed solution was incubated under LED irradiation (wavelength: 660 nm, 10 mW) (without light irradiation for dark) at 37° C. for 5 minutes. Further, the cell culture plate containing the reaction solution was incubated in a 5% CO2 atmosphere at 37° C. for 48 hours. Finally, the Cell Count Reagent SF (10 μL: purchased from NACALAI TESQUE, INC.) containing WST-8 was added, and the culture was incubated in a 5% CO2 atmosphere at 37° C. for 3 hours, and thereafter the cell viability was determined from the absorbance at 450 nm (reference wavelength: 655 nm).

[8] = target: T2, Arctic Aβ1-38 (Homo sapiens, UniProt P05067, E693G); assay type: biochemical; conditions: mouse brain lysate, riboflavin, light irradiation
T2 construct: The peak intensity decreased by 36%/53%/74% for Arctic Aβ1-38; from tissue; host or cells: cerebral cortex and hippocampus of App knock-in mouse
Method: The brain excised from an eight-month-old App knock-in (App^NL-C-F/NL-C-F) mouse (Alzheimer's model mouse) was separated into the cerebral cortex, the hippocampus, and the residual brain tissues. The cerebral cortex and the hippocampus were homogenized together in a phosphate buffer saline, and the suspension was stored at −80° C. […] At an arbitrary point of time, an arbitrary aliquot of the reaction mixture was diluted with formic acid to a final concentration of 70%, concentrated, and redissolved in a 6 M aqueous solution of urea.

[9] = target: T3, angiotensin-IV (AT4) (Homo sapiens, UniProt P01019); assay: Aβ selectivity of oxygenation, Test Example 9; assay type: biochemical; conditions: peptide 20 μM, riboflavin 5 μM, 500 nm, 37° C., 30 minutes
T3 construct: angiotensin-IV (AT4), Met-enkephalin (ME), or somatostatin (Sst) (20 μM in each case)
Method: as §1
as §2, with “Each mixture was subjected to light irradiation with an LED (wavelength: 500, 660, or 780 nm) at a distance of approximately 5 to 10 cm at room temperature.” left out

[10] = target: T4, Met-enkephalin (ME) (Homo sapiens, UniProt P01210); assay: Aβ selectivity of oxygenation, Test Example 9; assay type: biochemical; conditions: peptide 20 μM, riboflavin 5 μM, 500 nm, 37° C., 30 minutes
T4 construct: angiotensin-IV (AT4), Met-enkephalin (ME), or somatostatin (Sst) (20 μM in each case)
Method: as §1
as §2, with “Each mixture was subjected to light irradiation with an LED (wavelength: 500, 660, or 780 nm) at a distance of approximately 5 to 10 cm at room temperature.” left out

[11] = target: T5, somatostatin (Sst) (Homo sapiens, UniProt P61278); assay: Aβ selectivity of oxygenation, Test Example 9; assay type: biochemical; conditions: peptide 20 μM, riboflavin 5 μM, 500 nm, 37° C., 30 minutes
T5 construct: angiotensin-IV (AT4), Met-enkephalin (ME), or somatostatin (Sst) (20 μM in each case)
Method: as §1
as §2, with “Each mixture was subjected to light irradiation with an LED (wavelength: 500, 660, or 780 nm) at a distance of approximately 5 to 10 cm at room temperature.” left out

[12] = target: T6, Aβ peptide (Homo sapiens, UniProt P05067); assay: Aβ selectivity of oxygenation, Test Example 9; assay type: biochemical; conditions: peptide 20 μM, riboflavin 5 μM, 500 nm, 37° C., 30 minutes
T6 construct: Aβ1-42 isopeptide (concentration: 250 μM in 0.1% aqueous solution of trifluoroacetic acid)
Method: as §1
as §2, with “Each mixture was subjected to light irradiation with an LED (wavelength: 500, 660, or 780 nm) at a distance of approximately 5 to 10 cm at room temperature.” left out

Row | Structure (SMILES) | benzoylmethionine/oxygenated form ratio (%) [1] | oxygenation of Aβ1-42 under light irradiation [2] | Maximum wavelength λmax (nm) [3] [nm] | CC50 ([4]; PC 12 cells in dark, read-out: LC50 (dark)) [nM] | CC50 ([4]; PC 12 cells, light irradiation 660 nm, read-out: LC50 (light)) [nM] | Degree of oxygenation (%) of Aβ42 (λ = 660 nm) [5] [%] | stability of catalyst (ranking) [6] | toxicity under light irradiation (ranking) [7] | consumption of Aβ1-38 [8] | yield of oxygenated angiotensin-IV [9] [%] | yield of oxygenated Met-enkephalin [10] [%] | yield of oxygenated somatostatin [11] [%] | yield of oxygenated Aβ [12] [%]
1 | CN(C)c1ccc(/C=C/C2=C(Br)C(/C=C/c3ccc4c(c3)CCCN4CCCCCC(=O)O)=[O+][B-](F)(C(F)(F)F)O2)cc1 (stereo not shown) [Compound K] | higher as the concentration of glycerol, which has high viscosity, was higher | oxygenation of the Aβ proceeded | 620 | 1890 | 143 | 86 | higher in the order of BFCF3 (compound K)<BFCF2CF3 (compound J) | higher in the order of the compound J, the compound K, and the compound L; also recorded: iodine provides more reduced toxicity than in the case of bromine | – | – | – | – | –
2 | Cc1cc2nc3c(=O)[nH]c(=O)nc-3n(C[C@H](O)[C@H](O)[C@H](O)CO)c2cc1C [riboflavin, reference compound] | – | – | – | – | – | – | – | – | consumed to a significant degree | 35 | 50 | 60 | 43
